# Source: patent publication US20260374756A1, “HETEROCYCLIC COMPOUNDS AS INHIBITORS OF MONOACYLGLYCEROL LIPASE (MAGL)” (Hoffmann-La Roche Inc., priority 2022, published 2026)
# Biological target: T1, hMAGL (Homo sapiens, UniProt Q99685)
# T1 sequence (Q99685 1-303): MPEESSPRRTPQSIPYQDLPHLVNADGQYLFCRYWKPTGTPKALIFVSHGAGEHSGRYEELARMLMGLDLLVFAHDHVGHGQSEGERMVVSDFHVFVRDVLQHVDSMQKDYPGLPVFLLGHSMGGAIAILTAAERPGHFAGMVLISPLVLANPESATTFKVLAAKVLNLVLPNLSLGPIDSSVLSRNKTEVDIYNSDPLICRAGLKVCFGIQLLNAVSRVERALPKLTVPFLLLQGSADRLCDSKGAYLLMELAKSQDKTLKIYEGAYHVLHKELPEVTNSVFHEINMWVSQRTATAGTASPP
# Assay: 2-AG assay: MAGL inhibition, hydrolysis of 2-arachidonoylglycerol to arachidonic acid followed by mass spectrometry
# Type: biochemical
# Method in brief: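 MAGL preincubated with compound 15 min at RT in 50 mM Tris, 1 mM EDTA, 0.01% Tween-20, 2.5% DMSO; reaction started with 8 μM 2-AG (final), […], 30 min at RT. Quenched with acetonitrile containing d8-arachidonic acid; arachidonic acid quantified by RapidFire SPE-triple quad MS as arachidonic acid/d8 ratio.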
row,IC50 [nM],Compound
1,1.86,"O=C(N1CC2(CCN(Cc3cc(C(F)(F)F)sn3)CC2)C1)N1CC2(CC(n3cnc(C4CC4)n3)C2)C1 [Example 47, [6-(3-cyclopropyl-1,2,4-triazol-1-yl)-2-azaspiro[3.3]heptan-2-yl]-[7-[[5-(trifluoromethyl)isothiazol-3-yl]methyl]-2,7-diazaspiro[3.5]nonan-2-yl]methanone]"
2,0.23,"O=C(N1CC2(CC(Cc3cc(C(F)(F)F)n[nH]3)C2)C1)N1CC2(CC(n3cnc(C(F)(F)F)n3)C2)C1 [Example 298, [6-[[3-(trifluoromethyl)-1H-pyrazol-5-yl]methyl]-2-azaspiro[3.3]heptan-2-yl]-[6-[3-(trifluoromethyl)-1,2,4-triazol-1-yl]-2-azaspiro[3.3]heptan-2-yl]methanone]"
3,53,"CC(F)(F)c1noc(CN2CC3(C2)CN(C(=O)N2CC4(CC(n5cnc(C(F)(F)F)n5)C4)C2)C3)n1 [Example 258, [6-[[3-(1,1-difluoroethyl)-1,2,4-oxadiazol-5-yl]methyl]-2,6-diazaspiro[3.3]heptan-2-yl]-[6-[3-(trifluoromethyl)-1,2,4-triazol-1-yl]-2-azaspiro[3.3]heptan-2-yl]methanone]"
4,0.13,"O=C(N1CC2(CC(Cc3cnn4c(C(F)(F)F)ccnc34)C2)C1)N1CC2(CC(n3cnc(C4CC4)n3)C2)C1 [Example 359, [6-(3-cyclopropyl-1,2,4-triazol-1-yl)-2-azaspiro[3.3]heptan-2-yl]-[6-[[7-(trifluoromethyl)pyrazolo[1,5-a]pyrimidin-3-yl]methyl]-2-azaspiro[3.3]heptan-2-yl]methanone]"
5,10.8,"O=C(N1CC2(CC(n3cnc(C4(O)CC4)n3)C2)C1)N1CC2(CN(Cc3ncc(C(F)(F)F)s3)C2)C1 [Example 148, [6-[3-(1-hydroxycyclopropyl)-1,2,4-triazol-1-yl]-2-azaspiro[3.3]heptan-2-yl]-[6-[[5-(trifluoromethyl)thiazol-2-yl]methyl]-2,6-diazaspiro[3.3]heptan-2-yl]methanone]"
6,20.3,Cn1nc(C(F)(F)F)cc1CN1CC2(C1)CN(C(=O)N1CC3(CC(n4cnc(C(F)(F)F)n4)C3)C1)C2 [Example 166]
7,1.51,"O=C(N1CC2(CC(Cc3nc(C(F)(F)F)c[nH]3)C2)C1)N1CC2(CC(n3cnc(C(F)(F)F)n3)C2)C1 [Example 348, [6-[[4-(trifluoromethyl)-1H-imidazol-2-yl]methyl]-2-azaspiro[3.3]heptan-2-yl]-[6-[3-(trifluoromethyl)-1,2,4-triazol-1-yl]-2-azaspiro[3.3]heptan-2-yl]methanone]"
8,102,"Cc1nc(C)c(CN2CC3(C2)CN(C(=O)N2CC4(CC(n5cnc(C6CC6)n5)C4)C2)C3)o1 [Example 307, [6-(3-cyclopropyl-1,2,4-triazol-1-yl)-2-azaspiro[3.3]heptan-2-yl]-[6-[(2,4-dimethyloxazol-5-yl)methyl]-2,6-diazaspiro[3.3]heptan-2-yl]methanone]"
9,2.62,"O=C(N1CC2(CC(Cc3cc(C(F)(F)F)n[nH]3)C2)C1)N1CC2(CC(n3cnc(C(F)F)n3)C2)C1 [Example 343, [6-[3-(difluoromethyl)-1,2,4-triazol-1-yl]-2-azaspiro[3.3]heptan-2-yl]-[6-[[3-(trifluoromethyl)-1H-pyrazol-5-yl]methyl]-2-azaspiro[3.3]heptan-2-yl]methanone]"
10,6.68,"O=C(N1CC2(CC(n3cnc(C4CC4)n3)C2)C1)N1CC2(CN(Cc3cc(C(F)(F)F)no3)C2)C1 [Example 184, [6-(3-cyclopropyl-1,2,4-triazol-1-yl)-2-azaspiro[3.3]heptan-2-yl]-[6-[[3-(trifluoromethyl)isoxazol-5-yl]methyl]-2,6-diazaspiro[3.3]heptan-2-yl]methanone]"
11,4.89,"Cn1nc(C2CC2)cc1CN1CC2(C1)CN(C(=O)N1CC3(CC(c4cc(C5CC5)n[nH]4)C3)C1)C2 [Example 270, [6-[(5-cyclopropyl-2-methyl-pyrazol-3-yl)methyl]-2,6-diazaspiro[3.3]heptan-2-yl]-[6-(3-cyclopropyl-1H-pyrazol-5-yl)-2-azaspiro[3.3]heptan-2-yl]methanone]"
12,7.53,"O=C(N1CC2(CC(n3cnc(C4CC4)n3)C2)C1)N1CC2(CN(Cc3cc(C(F)(F)F)on3)C2)C1 [Example 190, [6-(3-cyclopropyl-1,2,4-triazol-1-yl)-2-azaspiro[3.3]heptan-2-yl]-[6-[[5-(trifluoromethyl)isoxazol-3-yl]methyl]-2,6-diazaspiro[3.3]heptan-2-yl]methanone]"
13,44.8,"O=C(N1CC2(CCN(Cc3nc(C(F)(F)F)cs3)CC2)C1)N1CC2(CC(n3cnc(C(F)(F)F)n3)C2)C1 [Example 176, [7-[[4-(trifluoromethyl)thiazol-2-yl]methyl]-2,7-diazaspiro[3.5]nonan-2-yl]-[6-[3-(trifluoromethyl)-1,2,4-triazol-1-yl]-2-azaspiro[3.3]heptan-2-yl]methanone]"
14,135,"O=C(N1CC2(CC(Cc3ncn(CC(F)(F)F)n3)C2)C1)N1CC2(CC(n3cnc(C4(O)CC4)n3)C2)C1 [Example 203, [6-[3-(1-hydroxycyclopropyl)-1,2,4-triazol-1-yl]-2-azaspiro[3.3]heptan-2-yl]-[6-[[1-(2,2,2-trifluoroethyl)-1,2,4-triazol-3-yl]methyl]-2-azaspiro[3.3]heptan-2-yl]methanone]"
15,311,"Cc1c(CN2CC3(C2)CN(C(=O)N2CC4(CC(n5cnc(C(F)(F)F)n5)C4)C2)C3)cnn1CC(F)(F)F [Example 114, [6-[[5-methyl-1-(2,2,2-trifluoroethyl)pyrazol-4-yl]methyl]-2,6-diazaspiro[3.3]heptan-2-yl]-[6-[3-(trifluoromethyl)-1,2,4-triazol-1-yl]-2-azaspiro[3.3]heptan-2-yl]methanone]"
16,10.5,"O=C(N1CC2(CC(n3cnc(C(F)(F)F)n3)C2)C1)N1CC2(CN(Cc3sncc3C(F)(F)F)C2)C1 [Example 178, [6-[[4-(trifluoromethyl)isothiazol-5-yl]methyl]-2,6-diazaspiro[3.3]heptan-2-yl]-[6-[3-(trifluoromethyl)-1,2,4-triazol-1-yl]-2-azaspiro[3.3]heptan-2-yl]methanone]"
17,3.54,"N=S(=O)(c1cnn(CC2CC3(C2)CN(C(=O)N2CC4(CC(n5cnc(C(F)(F)F)n5)C4)C2)C3)c1)C(F)(F)F (centres unmarked) [Example 341, [6-[[4-(trifluoromethylsulfonimidoyl)pyrazol-1-yl]methyl]-2-azaspiro[3.3]heptan-2-yl]-[6-[3-(trifluoromethyl)-1,2,4-triazol-1-yl]-2-azaspiro[3.3]heptan-2-yl]methanone]"
18,37.1,Cc1nc(C(F)(F)F)c(CN2CC3(C2)CN(C(=O)N2CC4(CC(n5cnc(C(F)(F)F)n5)C4)C2)C3)s1 [Example 85]
19,2.26,"O=C(N1CC2(CC(Cc3n[nH]cc3C(F)(F)F)C2)C1)N1CC2(CC(n3cnc(C(F)F)n3)C2)C1 [Example 344, [6-[3-(difluoromethyl)-1,2,4-triazol-1-yl]-2-azaspiro[3.3]heptan-2-yl]-[6-[[4-(trifluoromethyl)-1H-pyrazol-3-yl]methyl]-2-azaspiro[3.3]heptan-2-yl]methanone]"
20,1.06,"O=C(N1CC2(CC(Cn3cnc(C(F)(F)F)n3)C2)C1)N1CC2(CC(n3cnc(C4CC4)n3)C2)C1 [Example 127, [6-(3-cyclopropyl-1,2,4-triazol-1-yl)-2-azaspiro[3.3]heptan-2-yl]-[6-[[3-(trifluoromethyl)-1,2,4-triazol-1-yl]methyl]-2-azaspiro[3.3]heptan-2-yl]methanone]"
21,2.65,"Cc1nc(C(F)(F)F)c(CN2CC3(C2)CN(C(=O)N2CC4(CC(n5cnc(C6CC6)n5)C4)C2)C3)s1 [Example 86, [6-(3-cyclopropyl-1,2,4-triazol-1-yl)-2-azaspiro[3.3]heptan-2-yl]-[6-[[2-methyl-4-(trifluoromethyl)thiazol-5-yl]methyl]-2,6-diazaspiro[3.3]heptan-2-yl]methanone]"
22,1.96,O=C(N1CC2(CC(Cc3n[nH]c(C(F)(F)F)n3)C2)C1)N1CC2(CC(n3cnc(C4CC4)n3)C2)C1 [Example 10]
23,368,Cn1ncc(CN2CC3(C2)CN(C(=O)N2CC4(CC(n5cnc(C6CC6)n5)C4)C2)C3)c1S(N)(=O)=O [Example 251]
24,5.6,"Cn1nc(C(F)(F)F)cc1CN1CC2(C1)CN(C(=O)N1CC3(CC(n4cnc(C5CC5)n4)C3)C1)C2 [Example 167, [6-(3-cyclopropyl-1,2,4-triazol-1-yl)-2-azaspiro[3.3]heptan-2-yl]-[6-[[2-methyl-5-(trifluoromethyl)pyrazol-3-yl]methyl]-2,6-diazaspiro[3.3]heptan-2-yl]methanone]"
25,251,"O=C(N1CC2(CCN(Cc3cc(C(F)(F)F)on3)CC2)C1)N1CC2(CC(n3cnc(C4(O)CC4)n3)C2)C1 [Example 81, [6-[3-(1-hydroxycyclopropyl)-1,2,4-triazol-1-yl]-2-azaspiro[3.3]heptan-2-yl]-[7-[[5-(trifluoromethyl)isoxazol-3-yl]methyl]-2,7-diazaspiro[3.5]nonan-2-yl]methanone]"
26,113,"O=C(N1CC2(CCC(Cc3nnc(C(F)(F)F)[nH]3)CC2)C1)N1CC2(CC(n3cnc(C(F)F)n3)C2)C1 [Example 315, [6-[3-(difluoromethyl)-1,2,4-triazol-1-yl]-2-azaspiro[3.3]heptan-2-yl]-[7-[[5-(trifluoromethyl)-4H-1,2,4-triazol-3-yl]methyl]-2-azaspiro[3.5]nonan-2-yl]methanone]"
